The assay in a line: Inhibition of TCDD-induced EROD activity in human HepG2 cells after 24 hrs. It counts as cell-based.

A word on the IC50: it is the concentration needed to halve the response being measured. A low value points to greater potency in that assay.

Consider `CC(=O)N1/C(=C2\N=c3ccccc3=C2c2c(C3=Nc4ccccc4C3=O)[nH]c3ccccc23)C(=O)c2ccccc21`, for which the IC50 came to 3 µM.

In turn, `O=c1cc(-c2ccccc2)oc2c1ccc1ccccc12` [ALPHA-NAPHTHOFLAVONE] displayed an IC50 of 0.32 µM.

With `O=C1C(c2[nH]c3ccccc3c2C2=c3ccccc3=N/C2=C2\Nc3ccccc3C2=O)=Nc2ccccc21` [BISINDIGOTIN], the IC50 amounted to 0.8 µM.

(Values after ChEMBL document CHEMBL1158711, “Bisindigotin, a TCDD antagonist from the Chinese medicinal herb Isatis indigotica” (J Nat Prod, 2005).)
